Measured values from patent publication US20060079453A1, “Hla binding peptides and their uses” (priority 2002, published 2006).
Where two headings read alike, the source gives them in different places. No end group written: not given here.

Tests used:
Experiment in all cases: biochemical
Type in all cases: binding
HLA-DR DRB3*0101 (DR52) = HLA-DR DRB3*0101 (DR52) (Homo sapiens, UniProt P01903+P79483)
HLA-DR DRB5*0101 (DR51) = HLA-DR DRB5*0101 (DR51) (Homo sapiens, UniProt P01903+Q30154)
HLA-DR DRB1*1302 (DR13) = HLA-DR DRB1*1302 (DR13) (Homo sapiens, UniProt P01903+P01911, A100E/A169T/K41T/L162R/M171V/P40S/Q125H/Q178H/Q39Y/Q99D/R42S/S66N/T262R/V115G/W38E/Y61H)
Chain of HLA-DR DRB1*1302 (DR13) (P01903 26-254 limits assumed, other chains not shown): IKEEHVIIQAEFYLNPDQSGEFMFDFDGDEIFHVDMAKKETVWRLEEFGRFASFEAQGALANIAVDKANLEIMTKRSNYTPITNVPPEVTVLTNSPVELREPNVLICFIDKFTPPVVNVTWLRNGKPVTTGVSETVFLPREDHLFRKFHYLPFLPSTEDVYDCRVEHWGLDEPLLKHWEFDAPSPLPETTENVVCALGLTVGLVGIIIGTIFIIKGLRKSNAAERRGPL

HLA-DR DRB1*1101 (DR11) = HLA-DR DRB1*1101 (DR11) (Homo sapiens, UniProt P01903+P01911, A100R/A169T/A87E/I96F/K41T/L162R/M171V/P40S/Q125H/Q178H/Q39Y/Q99D/R42S/S66Y/T262R/V115G/W38E)
Chain of HLA-DR DRB1*1101 (DR11) (P01903 26-254 limits assumed, other chains not shown): as above

HLA-DR DRB1*0901 (DR9) = HLA-DR DRB1*0901 (DR9) (Homo sapiens, UniProt P01903+P01911, A100R/A103E/D57H/D86V/F55Y/F60I/F76Y/I96F/K127E/L162R/M171V/P40D/Q125H/Q99R/R33Q/R42F/S133A/S66N/T210M/V115G/W38K/Y107V/Y59G/Y89S); settings: DRB1 *0901
HLA-DR DRB4*0101 (DR53) = HLA-DR DRB4*0101 (DR53) (Homo sapiens, UniProt P01903+P13762, G164S)
HLA-DR DRB1*0401 (DR4) = HLA-DR DRB1*0401 (DR4) (Homo sapiens, UniProt P01903+P01911, A100K/A169T/F76Y/I96L/K127E/L162R/M171V/N62H/P40V/Q125Y/R42H/S133A/S149N/S66Y/V115G/V209L/W38E); settings: DRB1 *0401
HLA-DR DRB1*0301 (DR3) = HLA-DR DRB1*0301 (DR3) (Homo sapiens, UniProt P01903+P01911, A100K/A102G/A103R/A169T/F55Y/I96L/K41T/L162R/M171V/P40S/Q125H/Q178H/Q39Y/R42S/S66N/T106N/T262R/W38E/Y61H)
Chain of HLA-DR DRB1*0301 (DR3) (P01903 26-254 limits assumed, other chains not shown): as above

HLA-DR DRB1*0701 (DR7) = HLA-DR DRB1*0701 (DR7) (Homo sapiens, UniProt P01903+P01911, A100R/A102G/A103Q/D57E/D86V/E43K/F76Y/K127E/L162R/M171V/P40G/Q125H/Q99D/R33Q/R42Y/R54Q/S133A/S66F/T210M/V115G/Y107V/Y59L/Y89S); settings: DRB1 *0701
HLA-DR DRB1*1501 (DR15) = HLA-DR DRB1*1501 (DR15) (Homo sapiens, UniProt P01903+P01911)
HLA-DR DRB1*0802 (DR8) = HLA-DR DRB1*0802 (DR8) (Homo sapiens, UniProt P01903+P01911, A100R/A103L/A169T/F76Y/H45Y/I96F/K41T/L162R/M171V/P40S/Q125H/Q178H/Q39Y/Q99D/R218S/R42G/S66Y/V115G/W38E)

| Sequence | IC50 (HLA-DR DRB3*0101 (DR52); read-out: DRB3 *0101) [µM] | IC50 (HLA-DR DRB5*0101 (DR51); read-out: DRB5 *0101) [nM] | IC50 (HLA-DR DRB1*1302 (DR13); read-out: DRBI *1302) [nM] | IC50 (HLA-DR DRB1*1101 (DR11); read-out: DRB1 *1101) [µM] | IC50 (HLA-DR DRB4*0101 (DR53); read-out: DRB4 *0101) [nM] | IC50 (HLA-DR DRB3*0101 (DR52)) [µM] | other results |
| --- | --- | --- | --- | --- | --- | --- | --- |
| LGFFPDHQLDPAFRAN | 1.45 |  |  |  |  |  |  |
| LGFLQRSSNTQTQKL | > 1750 | 339 | 21 | 26.2 |  |  |  |
| LMAFTAAVTS |  |  |  |  |  |  | IC50 (HLA-DR DRB5*0101 (DR51); DRB5 *0101): > 12600 nM; IC50 (HLA-DR DRB1*0901 (DR9)): 160 nM; IC50 (HLA-DR DRB4*0101 (DR53); DRB4 *0101): 11700 nM; IC50 (HLA-DR DRB1*0401 (DR4)): 321 nM; IC50 (HLA-DR DRB1*0301 (DR3)): > 74 µM; IC50 (HLA-DR DRB1*1302 (DR13); DRBI *1302): > 2460 nM; IC50 (HLA-DR DRB1*1101 (DR11); DRB1 *1101): > 23.3 µM; IC50 (HLA-DR DRB1*0701 (DR7)): 0.24 µM; IC50 (HLA-DR DRB1*1501 (DR15); DRBI *1501): 1930 nM; IC50 (HLA-DR DRB1*0802 (DR8)): > 40.6 µM |
| LPSWATEDTMTKIRE | 5.97 |  | > 35000 | > 66.7 | > 11100 |  | IC50 (HLA-DR DRB1*1501 (DR15); read-out: DRBI *1501): > 45500 nM |
| LWQLNGRLEYCLKDR |  |  |  |  |  | 29 |  |
| MSAMTALAALFPPEG | 7.16 | 63200 |  | > 200 |  |  |  |
| MTNLAALFPPEGVSI | > 8.83 | 141000 |  | 141 | 4610 |  |  |
| QAKKEKLNIWSEDNADSGQ |  |  |  |  |  | > 5.56 | IC50 (HLA-DR DRB1*0301 (DR3)): > 900 µM; IC50 (HLA-DR DRB1*0701 (DR7)): > 250 µM |
| RLFDNAMLRAHRLHQ | > 270 | 58 | 738 |  | 1630 |  | IC50 (HLA-DR DRB1*1501 (DR15); read-out: DRBI *1501): 18 nM |
| SAAPLRTITADTFRK [SAAPLRT1TADTFRK] |  |  |  |  |  | 2.11 | IC50 (HLA-DR DRB5*0101 (DR51); DRB5 *0101): 45 nM; IC50 (HLA-DR DRB4*0101 (DR53); DRB4 *0101): 17 nM; IC50 (HLA-DR DRB1*1302 (DR13); DRBI *1302): 809 nM; IC50 (HLA-DR DRB1*1101 (DR11); DRB1 *1101): 3.88 µM; IC50 (HLA-DR DRB1*1501 (DR15); DRBI *1501): 858 nM |
| SHDLMLLRLSEPAKI | 5.36 | 2030 | 1.8 |  | 10 |  |  |
| TAWTIYRVEILRNFY | 14.4 | 518 | 72 | 5.05 | 26 |  |  |
| TLERPKTLSPGKNGV | > 263 | 11300 | 835 | > 52.6 | 25700 |  | IC50 (HLA-DR DRB1*1501 (DR15); read-out: DRBI *1501): 23300 nM |
| TPDKLTGPFTVRYTTEGGTK |  |  |  |  |  | > 25 | IC50 (HLA-DR DRB1*0401 (DR4)): > 667 nM; IC50 (HLA-DR DRB1*0301 (DR3)): > 900 µM; IC50 (HLA-DR DRB1*0701 (DR7)): > 12.5 µM |
| VAQVRGGNIVFELANS | > 21.9 | 64400 | 2800 | > 50 | 100 |  |  |
| VGGVYLLPRRGPRIGV | 60.8 | 12 | > 15400 | 0.088 | 19200 |  | IC50 (HLA-DR DRB1*1501 (DR15); read-out: DRBI *1501): 4.2 nM |
| VRVEILRNFYVINRL | 80.4 | 485 | 5.8 | 0.504 | 187 |  | IC50 (HLA-DR DRB1*1501 (DR15); read-out: DRBI *1501): 1.04 nM |
| VRYTTEGGTKSEVEDVIPEG |  |  |  |  |  | > 25 | IC50 (HLA-DR DRB1*0401 (DR4)): > 667 nM; IC50 (HLA-DR DRB1*0301 (DR3)): > 30 µM; IC50 (HLA-DR DRB1*0701 (DR7)): > 12.5 µM |
| YGRILHYLKAKEDSH [YORILHYLKAKBDSH] |  |  |  |  |  | 455 | IC50 (HLA-DR DRB5*0101 (DR51); DRB5 *0101): 39 nM; IC50 (HLA-DR DRB4*0101 (DR53); DRB4 *0101): 140 nM; IC50 (HLA-DR DRB1*1302 (DR13); DRBI *1302): 2780 nM; IC50 (HLA-DR DRB1*1101 (DR11); DRB1 *1101): 0.812 µM; IC50 (HLA-DR DRB1*1501 (DR15); DRBI *1501): 16 nM |
| YKTIAYDEEARR |  |  |  |  |  | > 50 | IC50 (HLA-DR DRB5*0101 (DR51); DRB5 *0101): ≥ 200000 nM |
| YLVCGERGFFYTKPT |  |  |  |  |  | 12.8 | IC50 (HLA-DR DRB5*0101 (DR51); DRB5 *0101): > 28400 nM; IC50 (HLA-DR DRB4*0101 (DR53); DRB4 *0101): 40400 nM; IC50 (HLA-DR DRB1*1302 (DR13); DRBI *1302): 3470 nM; IC50 (HLA-DR DRB1*1101 (DR11); DRB1 *1101): > 60.6 µM; IC50 (HLA-DR DRB1*1501 (DR15); DRBI *1501): > 25600 nM |
| YLVTGERGFFYTKPT | 9.57 |  |  |  | 27900 |  | IC50 (HLA-DR DRB1*1501 (DR15); read-out: DRBI *1501): > 21000 nM |
